“Also recorded” adds a separate entry of the source.
Columns and labels:
Type in all cases: in vivo
[1] = system: IL-1β; experiment: Hippocampal IL-1β by ELISA after tibial surgery; conditions: wild type mice, 6 h (minocycline, enrofloxacin) or 24 h (IL-1Ra) after surgery
Procedure: IL-6, TNF-α and IL-1β were measured by ELISA^19 (Biosource, CA; Bender Medsystem, CA, respectively). Hippocampal IL-1β was measured by ELISA (Bender Medsystem, CA), as previously described^20. To confirm reliability of dilution linearity and spike recovery cytokine measurement were also performed in mice in which inflammation was induced with i.p. LPS (0111:B4, Invivogen, CA). (For further details please refer to supplemental methods).
Under terminal anesthesia with pentobarbital, each mouse was euthanized and the brain quickly removed following decapitation. The hippocampus was dissected under microscopy on a frosted glass plate placed on top of crushed ice, then snap frozen and stored at −80° C. until processing. Each hippocampus was added to Iscove's culture medium containing 5% fetal calf serum (FCS) and a cocktail of enzyme inhibitors (in mM: 100 amino-n-caproic acid, 10 EDTA, 5 benzamidine-HCl, and 0.2 phenylmethylsulfonyl fluoride). […] IL-1β was measured in the supernatant from hippocampal extracts, which were appropriately diluted prior to measurement to fall on the linear portion of the sigmoid curve, using a commercially available ELISA kit (Bender Medsystem, CA). […]
Cytokine analyses: Systemic and hippocampal IL-1β was measured by ELISA (Bender Medsystem, CA; 1.2 pg/ml of sensitivity), as previously described (12).

[2] = system: C57-BL6 mice; experiment: Fear conditioning, freezing to context after tibial surgery; conditions: wild type mice, surgery 30 min after training, tested three days later
Procedure: Fear conditioning tests. Mice were conditioned 30 minutes or 3 days prior to intervention by training with two cycles of tone and foot-shock pairings. In delay fear conditioning a foot-shock was administered during the last 2 seconds of each 20 seconds-lasting tone.
In trace fear conditioning, the foot-shock onset, lasting 2 seconds as in the previous paradigm, followed a 20-second gap after each tone termination. Three days after conditioning, mice were placed back in the original conditioning chamber for 270 seconds, where no tone or shock were presented, to assess recall of contextual fear memory. After 3 h mice were placed in a novel environment (different context from training) to test for auditory-cued memory. Following an initial baseline period of 135 seconds during which freezing was scored in absence of noise, the auditory cue was presented for the final 135 seconds of the test, and freezing was again recorded. (For further details please refer to supplemental methods).
The behavioral study was conducted using a conditioning chamber (Med. Associates Inc., St. Albans, VT, USA). The back- and the side-walls of the chamber were made of aluminium, whereas the front door and the ceiling were of transparent Plexiglas. The floor of the chamber consisted of 36 stainless steel rods (1 mm diameter) spaced 0.5 cm apart (center-to-center). […]

[3] = system: C57BL/6 male mice; experiment: Trace fear conditioning, contextual fear response after LPS injection; conditions: LPS within 30 min after training, tested day 3, IL-1Ra pre-treatment
Procedure: Treatment. LPS derived from Escherichia Coli endotoxin ([…], InvivoGen, USA, 1 mg/kg) was dissolved in normal saline and injected intraperitoneally. IL-1Ra (Amgen, Anakinra 100 mg/kg, Nederlands) was given subcutaneously immediately before LPS administration. Dose response curve from LPS or IL-1Ra was obtained from our pilot studies to provoke or to suppress moderate degree of microglia activation respectively. Control animals were injected with equivalent volumes (0.1 ml) of saline. Mice from each treatment group were randomly assigned for assessment of either cytokine response or cognitive behavior, in order to obviate possible confounding effects of behavioral testing on inflammatory markers.
Behavioral measurement (conditioning). The behavioral study was conducted using a dedicated conditioning chamber (Med Associates Inc., USA). Mice were trained and tested on separate days. LPS was injected within 30 minutes following training. […] Three days after training, mice were returned to the same chamber in which training occurred (context), and freezing behavior was recorded. […] Approximately 3 h later, freezing was recorded in a novel environment and in response to the cue (tone). The auditory cue was then presented for 3 min, and freezing scored again. Freezing scores for each subject were expressed as a percentage for each portion of the test. […]

Substance: IL-1Ra: IL-1 receptor antagonist (Amgen, Anakinra)
- Hippocampal IL-1β expression after surgery, effect of treatment [1]: did not increase hippocampal microgliosis (FIG. 6, A-B-C) or expression of IL-1β; also recorded: Hippocampal IL-1β did not significantly increase
- Freezing to context (delay fear conditioning) after surgery, effect of treatment [2]: prevented the decrement in postoperative freezing behavior; also recorded: significantly reduced the surgery-induced decrement in freezing behavior
- Contextual fear response (freezing) after LPS, effect of IL-1Ra [3]: significantly ameliorated the memory retention at day 3; also recorded: significantly ameliorated this cognitive dysfunction
